In patent US9789102B2, “H3 receptor antagonist for use in the treatment of alzheimer's disease” (SANOFI, priority 2012, dated 2017):

Key:
[1] = tested on: protein tau hyperphosphorylation on AT-8 (pSer199-202/Thr205) epitope; assay: AT8 immunohistochemistry with quantitative image analysis after six months in food; format: in vivo, THY-Tau22 mice; conditions: for protein tau phosphorylation on AT-8 epitope in cortex, vs vehicle: n=9; for decrease of the number of AT8-positive neuronal cells, cortex: significant
Text: (§1) 2-(Cyclohexylmethyl)-N-{2-[(2S)-1-methylpyrrolidin-2-yl]ethyl}-1,2,3,4-tetrahydroisoquinoline-7-sulfonamide difumarate monohydrate was administrated as a supplement in food at doses of 0.00034%, 0.0034% and 0.034% for six months in THY-Tau22 and wild type mice as follows: • Tg Veh (n=17) • Tg Active Ingredient—0.034% (n=17) • Tg Active Ingredient—0.0034% (n=17) • Tg Active Ingredient—0.00034% (n=17) • WT Veh (n=17) • WT Active Ingredient—0.034% (n=17) • WT Active Ingredient—0.0034% (n=17) • WT Active Ingredient—0.00034% (n=17) • WT groups treated with Active Ingredient are not used in the biochemical and histological studies.
After mice were decapitated, brains were removed and one hemibrain (used for histopathological studies) was immersion-postfixed for seven days at 4° C. with 4% formaldehyde (Carlo Erba/code 415691). The other hemibrain was prepared for biochemical quantitative measurements.
Post-fixed hemibrains were incubated in phosphate-buffered saline (PBS, P 3813-10PAK, Sigma), transferred to a 20% sucrose solution (code 27480.294—Prolabo) for 48 hours at 4° C. to ensure good cryopreservation of tissues during subsequent freezing. For freezing, hemibrains were immersed for one minute in isopentane solution (Ref. No. 24872-323—Prolabo) cooled with dry ice to between −25° C. and −30° C. and then stored at −25° C.
The entire hemibrains were cut with a cryostat (Microm, HM560). Serial sagittal brain tissue sections were collected onto Superfrost plus microscope glass slides (VWR) and then stored at −20° C. (sections of 20 μm of thickness), or placed in PBS-sodium azide 0.1% (S-2002, Sigma) containing wells to avoid any contamination and stored at 4° C. (sections of 30 μm of thickness).
Hyperphosphorylated microtubule-associated protein tau is the major component of the paired helical filament. Phosphorylation-dependent anti-tau antibodies can be used to identify specific amino acids that are phosphorylated in tau from normal brain and AD brain. For example, the monoclonal antibody, AT8, is widely used. Antibody that can detect the phosphorylated serine 202 and the phosphorylated threonine 205 epitopes of phosphorylated tau (AT8 epitope (M. Goedert et al., Neuroscience Letters, (1995) 189, 3, pp. 167-169)).
An immunohistochemical protocol using the AT8 antibody and based upon the avidin-biotin horseradish peroxidase method was applied on 30 μm free-floating sections. The detailed protocol is as follows:
The following reagents are used: 0.1M PBS buffer in 1 liter of H2O (2.23 g of NaH2PO4, 2H2O (Prolabo Ref. No. 33 616.262), 29 g of Na2HPO4, 12 H2O (Prolabo Ref. No. 28 028.298), 9 g of NaCl (Prolabo Ref. No. 27 810.295)); PBS-Triton (0.15%) buffer Triton×100 (Sigma Ref. No. 23 479-9) (PBS-T) (1 l of 0.1M PBS buffer, 1.5 ml of Triton); 0.2M PBS buffer in 1 liter of H2O (4.46 g of NaH2PO4, 2H2O, 58 g of Na2HPO4, 12H2O, 18 g of NaCl); 30% H2O2 (Sigma Ref. No. H 1009); 3,3′-diaminobenzidine tetrahydrochloride (Sigma Ref. No. D9015, 100 mg stored at −20° C.); Vectastain® ABC Kit (Ref. No. PK 4000, Vector); BSA: bovine serum albumin (Sigma Ref. No. A8022).
Sections were preincubated for 3×10 minutes in 0.1 M-PBS-0.15% triton solution and then in 0.1M-PBS-1.5% hydrogen peroxide-50% methanol at room temperature for 30 minutes. After 3 washings in 0.1 M-PBS-0.15% triton, they were further incubated in blocking buffer [i.e., in BSA diluted at 10% in 0.01 M PBS] for 30 minutes. They were incubated at room temperature overnight with mouse anti-human PHF-Tau monoclonal antibody (clone AT8, Thermo Science, MN1020, dilution 1/500 in 0.1M PBS-0.05% Triton) and then with the secondary antibody (anti-mouse IgG biotinylated whole antibody from goat, Amersham, RPN1177, dilution 1/500 in 0.1M PBS-0.05% Triton) for 1 h 30. They were finally incubated in peroxidase-coupled avidin complex (Vectastain ABC kit, Vector Laboratories, dilution 1/400 in 0.1M PBS) for 30 minutes. […]

[2] = tested on: MIP-1α gene expression; assay: mRNA expression of MIP-1α in hippocampus by QPCR after six months in food; format: in vivo, THY-Tau22 mice
Text: as §1
1. […] To assess the quality and concentration of the total RNA, 1 μl was analyzed on an RNA LabChip (Agilent) using a 2100 Bioanalyser, (Agilent Technologies). […]
2 μg of total RNA from each mouse was reverse transcribed with oligo (dT)16 and random primers using a High-Capacity cDNA Archive Kit (Applied Biosystems), following the manufacturer recommendations. […] For real time PCR, the housekeeping gene R.L37A, was amplified using a quantitect primer assay from Qiagen (QT00252266) and MIP1 alpha was amplified using the following primers (5′-[…]-3′) SEQ ID NO: 1; (5′-[…]-3′) SEQ ID NO: 2. […]

Structure (SMILES): CN1CCC[C@H]1CCNS(=O)(=O)c1ccc2c(c1)CN(CC1CCCCC1)CC2 [2-(cyclohexylmethyl)-N-{2-[(2S)-1-methylpyrrolidin-2-yl]ethyl}-1,2,3,4-tetrahydroisoquinoline-7-sulfonamide difumarate monohydrate]
- protein tau phosphorylation on AT-8 epitope in cortex, vs vehicle ([1]; 0.0034% in food, six months): statistical significant decrease
- intensity of AT8-immunostaining within neuronal cell bodies and fibers, cortex ([1]; 0.0034% in food, six months, qualitatively observed): decrease
- decrease of the number of AT8-positive neuronal cells, cortex ([1]; 0.0034% in food, six months): −47%
- protein tau phosphorylation on AT-8 epitope in cortex, vs vehicle ([1]; 0.034% in food, six months): statistical significant decrease
- decrease of the number of AT8-positive neuronal cells, cortex ([1]; 0.034% in food, six months): −32%
- AT8-positive neuronal cell number in other ROIs (amygdala, CA1 and dentate gyrus hippocampal subareas) ([1]; six months in food): No significant decrease
- MIP-1α gene expression in hippocampus, vs vehicle ([2]; 0.00034% in food): statistical significant decrease
- MIP-1α gene expression in hippocampus, vs vehicle ([2]; 0.0034% in food): statistical significant decrease
